Source: the supplement of paper PMC10307832

What was measured:
Assay in all cases: relative viability (nuclei count vs DMSO), 5 days (fraction); higher = more cells survive
[1] = compound: CC1=C(C(=NN1)C)CC2=C(C3=C(S2)N(C(=O)N(C3=O)C)CC(C)C)C(=O)N4C[C@@H](CO4)O + N=C(N)NC(=N)NCCc1ccccc1 [Phenformin] (partner 250 µM)
Summary of the method: (§1)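 Lung cancer cell lines were seeded in 1536-well plates and dosed by pin tool the next day, with either a single drug or a fixed anchor-drug dose combined with five library-drug doses (not always all listed) spaced in √10 steps. Five days later, one step fixed the cells and stained their nuclei (final 0.05% Triton X-100, 1% formaldehyde, 1 ug/ml Hoechst), and nuclei were counted on 4× images. Relative viability is the nuclei count in treated wells divided by the count in vehicle wells, and each value is the median of duplicate plates.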

[2] = compound: CC1=C(C(=NN1)C)CC2=C(C3=C(S2)N(C(=O)N(C3=O)C)CC(C)C)C(=O)N4C[C@@H](CO4)O + Nc1nc2[nH]cc(CCc3ccc(C(=O)N[C@@H](CCC(=O)O)C(=O)O)cc3)c2c(=O)[nH]1 [Pemetrexed] (partner 0.2 µM)
Summary of the method: as §1

[3] = compound: CC1=C(C(=NN1)C)CC2=C(C3=C(S2)N(C(=O)N(C3=O)C)CC(C)C)C(=O)N4C[C@@H](CO4)O + Nc1ncn([C@H]2C[C@H](O)[C@@H](CO)O2)c(=O)n1 [Decitabine] (partner 2 µM)
Summary of the method: as §1

IDH-C35 + Linsitinib = compound: Cc1ccccc1C(C(=O)NC1CCCCC1)N(C(=O)Cn1ccnc1C)c1cccc(F)c1 [IDH-C35] + C[C@]1(O)C[C@@H](c2nc(-c3ccc4ccc(-c5ccccc5)nc4c3)c3c(N)nccn32)C1 [Linsitinib] (partner 1 µM)
Summary of the method: as §1

Cell Line: UMC-11
- relative viability ([1]; first compound 0.0025 µM): 0.168
- relative viability ([1]; first compound 0.007906 µM): 0.195
- relative viability ([1]; first compound 0.025 µM): 0.156
- relative viability ([1]; first compound 0.07906 µM): 0.17
- relative viability ([1]; first compound 0.25 µM): 0.188
- relative viability ([2]; first compound 0.0025 µM): 0.791
- relative viability ([2]; first compound 0.007906 µM): 0.86
- relative viability ([2]; first compound 0.025 µM): 0.779
- relative viability ([2]; first compound 0.07906 µM): 0.761
- relative viability ([2]; first compound 0.25 µM): 0.789
- relative viability ([3]; first compound 0.0025 µM): 0.54
- relative viability ([3]; first compound 0.007906 µM): 0.506
- relative viability ([3]; first compound 0.025 µM): 0.38
- relative viability ([3]; first compound 0.07906 µM): 0.483
- relative viability ([3]; first compound 0.25 µM): 0.491
- relative viability (IDH-C35 + Linsitinib; first compound 0.08 µM): 0.942
- relative viability (IDH-C35 + Linsitinib; first compound 0.253 µM): 1.06
- relative viability (IDH-C35 + Linsitinib; first compound 0.8 µM): 1.04
- relative viability (IDH-C35 + Linsitinib; first compound 2.53 µM): 1.04
- relative viability (IDH-C35 + Linsitinib; first compound 8 µM): 0.971
